Measured values as given in patent US4205076A, “Lipogenesis inhibition by certain esters of substituted benzodioxincarboxylic acids” (Shell Oil Company, priority 1979, dated 1980).

System: swine adipose tissue
Assay: Inhibition of lipogenesis (incorporation of radioactive carbon from glucose-U-14C into lipid) in swine adipose tissue slices
Type: cell-based
Settings: 100 micrograms per milliliter, 37° C., 2 hours, insulin, 5% DMSO, in triplicate
Text: The manner in which they cause this effect is not known with certainty; it is believed that they interfere with the synthesis of fatty acids in the tissues. Their effectiveness for this purpose has been ascertained by immersing samples of swine adipose tissue in a liquid medium containing radioactive glucose and the test chemical for a period of time, then isolating the lipid from the treated tissue and determining the incorporation of the radioactive carbon into lipid by means of scintillation counting techniques. These tests were conducted in swine adipose tissues because in swine, the primary site of lipogenesis--i.e., fatty acid synthesis--appears to be adipose tissue.
Described in more detail, tests were conducted according to the following general procedure:
150 milligrams of slices of swine adipose tissue were incubated at 37° C. for 2 hours with shaking in 3 milliliters of Krebs-Ringer bicarbonate solution containing one-half the normal calcium ion concentration, 60 micromoles of glucose, 0.5 micro-Curie of glucose-U^14 C, and 300 microunits of insulin, and 5% dimethyl sulfoxide (DMSO). The test compounds were added as a solution or suspension in DMSO and were present at a concentration of 100 micrograms per milliliter of the incubation mixture.
The incubation was terminated by addition of 0.25 milliliter of 1 N sulfuric acid. The resulting mixture was extracted with a total of 25 milliliters of chloroform/methanol (2:1 v/v). The extracts were washed according to Folch et al. (J. Biol. Chem. 226, 497-509, (1957)), air dried, and counted in a liquid scintillation counter with 15 milliliters of counting fluid (two parts toluene containing 0.4% w/v New England Nuclear Omnifluor/1 part Triton X-100). The tests were conducted in triplicate and were accompanied by control tests in which all ingredients,proportions and conditions were the same except that no test compound was included. From the data obtained were calculated the percent inhibition of lipid synthesis by the test compounds in each case. The data obtained from the tests are set out in Table 1, as the percent inhibition of lipogenesis compared to the results obtained in the control tests wherein only the test compound was omitted.

CCOC(=O)C1COc2ccc(C(C)=NOC)cc2O1 (stereo not drawn) [Compound 3, Ethyl 2,3-dihydro-7-(1-(methoxyimino)ethyl)-1,4-benzodioxin-2-carboxylate]
Percent Inhibition (of lipogenesis compared to control): 52%

CCOC(=O)C1COc2ccc(C(=O)c3ccccc3)cc2O1 (stereo not drawn) [Compound 5, Ethyl 7-benzoyl-2,3-dihydro-1,4-benzodioxin-2-carboxylate]
Percent Inhibition (of lipogenesis compared to control): 69%

Ethyl 2,3-dihydro-7(and 6)-(1-(hydroxyimino)ethyl)-1,4-benzodioxin-2-carboxylate [Compound 2]
Percent Inhibition (of lipogenesis compared to control): 94%

Ethyl 6(and 7)-(2'-methyl-4'-thiazolyl)-2,3-dihydro-1,4-benzodioxin-2-carboxylate [Compound 6]
Percent Inhibition (of lipogenesis compared to control): 79%

Ethyl 6(and 7)-(acetylamino)-2,3-dihydro-1,4-benzodioxin-2-carboxylate [Compound 4]
Percent Inhibition (of lipogenesis compared to control): 96%

Ethyl 7(and 6)-acetyl-2,3-dihydro-1,4-benzodioxin-2-carboxylate [Compound 1]
Percent Inhibition (of lipogenesis compared to control): 89%
